{"source": "patent US6384077B1", "about": "“Highly purified EPA for treatment of schizophrenia and related disorders” (Laxdale Limited, priority 1999, dated 2002)", "key": {"[1]": {"test_system": "schizophrenia, drug-induced obesity", "format": "in vivo, human", "conditions": "in vivo", "description": "Obesity is another common side effect of antipsychotropic drugs. In this respect some of the newer drugs like olanzapine frequently seem to be even worse offenders than the typical neuroleptics. […] They preferred the olanzapine but it still left their withdrawn and unable to communicate normally with friends or family. To their distress it caused them to put on over 10 kg in weight. Their doctor decided to test ethyl-EPA in addition to olanzapine."}, "schizophrenia [2]": {"test_system": "schizophrenia", "assay": "case history: schizophrenia, E-EPA added to clozapine", "format": "in vivo, human", "conditions": "patient not responding to typical neuroleptics; clozapine up to 900 mg/day", "description": "This mechanism is thought to be responsible for their rapid effects on the so-called “positive” symptoms of schizophrenia (such as hallucinations, delusions and thought disorder). […] The D2 blocking action is also responsible for many of the adverse effects of these drugs, which include extrapyramidal movement disorders, excess prolactin secretion, and tardive dyskinesias. Examples of widely used drugs in this class include chlorpromazine, thioridazine, haloperidol, pimozide, flupenthixol and sulpiride.\nThese may include blockade of one or more of the other dopamine receptors such as D1, D3 or D4, and also usually including blockade of one or more classes of serotonin receptors. […] They may also have actions at other receptors, including histamine, glutamate and acetyl choline receptors.\nThe patient was treated with clozapine, eventually reaching a maximum dose of 900 mg/day.\nE-EPA in a dose of 2 g/day was then administered in addition to clozapine."}, "[3]": {"biological_target": "human brain enzyme FACL-4 (Homo sapiens, UniProt O60488)", "sequence (O60488 whole entry)": "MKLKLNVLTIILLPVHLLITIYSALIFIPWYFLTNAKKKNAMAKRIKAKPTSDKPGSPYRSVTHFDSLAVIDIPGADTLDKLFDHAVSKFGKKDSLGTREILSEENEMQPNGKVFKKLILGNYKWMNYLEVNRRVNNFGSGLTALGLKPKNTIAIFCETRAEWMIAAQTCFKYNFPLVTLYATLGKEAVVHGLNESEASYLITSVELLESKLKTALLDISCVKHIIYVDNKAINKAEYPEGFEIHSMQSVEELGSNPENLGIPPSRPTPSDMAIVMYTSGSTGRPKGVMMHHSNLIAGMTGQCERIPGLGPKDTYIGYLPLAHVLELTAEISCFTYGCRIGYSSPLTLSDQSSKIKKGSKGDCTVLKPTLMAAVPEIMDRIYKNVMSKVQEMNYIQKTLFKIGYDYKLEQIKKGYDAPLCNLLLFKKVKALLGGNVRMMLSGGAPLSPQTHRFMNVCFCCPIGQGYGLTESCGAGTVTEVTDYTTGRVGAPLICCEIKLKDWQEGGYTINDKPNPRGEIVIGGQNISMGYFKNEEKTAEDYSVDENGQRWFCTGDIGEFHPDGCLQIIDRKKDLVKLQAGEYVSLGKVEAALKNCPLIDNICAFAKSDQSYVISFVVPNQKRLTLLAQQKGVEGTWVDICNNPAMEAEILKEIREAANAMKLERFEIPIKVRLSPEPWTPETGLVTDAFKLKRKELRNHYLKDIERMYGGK", "conditions": "cited from earlier work"}, "schizophrenia [4]": {"test_system": "schizophrenia", "assay": "case history: schizophrenia, ethyl-EPA added to haloperidol", "format": "in vivo, human", "conditions": "person", "description": "A person had become ill with schizophrenia. They had florid hallucinations and paranoia, but also withdrew themself from most of their friendships and lived alone. […] They lived alone, ceased to communicate with most of their friends, and went around to town alone and muttering to […]. Their psychiatrist heard about ethyl-EPA and decided to try it in addition to the standard drug. After eight weeks on treatment with 4 g/day their outlook was transformed. […] They were even persuaded to go on holiday with their family where they enjoyed themself and made new friends. The EPA therefore reversed the extreme withdrawal which appeared to have been exaggerated by haloperidol."}, "phospholipase A2": {"test_system": "phospholipase A2", "conditions": "cited from earlier work"}, "[5]": {"test_system": "patients who had schizophrenia", "assay": "randomised, placebo-controlled study of ethyl-EPA in clozapine-treated patients with schizophrenia (PANSS, MADRS)", "format": "in vivo, human", "conditions": "12 weeks, patients on clozapine", "description": "Although the case reports of the effects of ethyl-EPA are convincing and in some cases dramatic, unequivocal proof of its efficacy must come from randomised, placebo-controlled trials. We therefore set up a randomised, placebo-controlled study of EPA in 34 patients who had schizophrenia according to the criteria set out in the American Psychiatric Association's Diagnostic and Statistical Manual of Mental Disorders (4th edition, DSM-IV). All of these patients were being treated with clozapine drugs but all remained seriously ill, with schizophrenic symptoms. Like many schizophrenics, some of the patients were also depressed. All were assessed at baseline and after 12 weeks using the Positive and Negative Symptom Scale for Schizophrenia (PANSS) and the Montgomery-Asberg Depression Rating Scale (MADRS). After giving informed consent, all the patients were randomised on a double blind basis to one of three groups: placebo, or 1 g or 2 g of ethyl-EPA per day in the form of 0.5 g capsules. Placebo and EPA capsules were indistinguishable from one another in appearance. All the patients improved to some degree so all the changes are percentage improvements"}, "tardive dyskinesia": {"test_system": "tardive dyskinesia", "assay": "patients with neuroleptic-induced tardive dyskinesia treated with EPA", "format": "in vivo, human", "conditions": "several patients", "description": "The typical neuroleptics in some patients produce a distressing condition called tardive dyskinesia. […] The patient experiences uncontrollable twitching and other movements. These can affect any part of the body but commonly affect the face where they are particularly distressing. Facial twitches and movements, including protrusions and uncontrollable movements of the tongue occur. […] Movements have become substantially less and in some patients have disappeared completely."}, "[6]": {"test_system": "attention deficit hyperactivity disorder (ADHD)", "assay": "case report: child with ADHD", "format": "in vivo, human", "conditions": "before ethyl-EPA", "description": "Attention deficit hyperactivity disorder (ADHD): ADHD and closely related conditions like attention deficit disorder and conduct disorders are commonly found in children. Occasionally they may be successfully treated by behaviour modification and other psychological techniques or by careful attention to diet. However, in most cases, paradoxical treatment with one of the stimulant drugs related in their action to amphetamine is required. Methylphenidate and dextroamphetamine are the commonest used. A child with serious ADHD since infancy was driving their parents to distraction. […] The parents were concerned about the long term consequences of stimulant drugs. The child was therefore tried on two capsules of pure ethyl-EPA per day. […] The child became less tense and irritable, less hyperactive, more open to reasoned discussion and enormously less disruptive both at home and school. Even when their methylphenidate was stopped, their behaviour remained improved."}}, "data": [{"smiles": "Cc1cc2c(s1)Nc1ccccc1N=C2N1CCN(C)CC1", "note": "[olanzapine, reference compound]", "values": [{"measurement": "weight put on", "setting": "[1]", "value": "over 10 kg"}]}, {"smiles": "Cc1nc2n(c(=O)c1CCN1CCC(c3noc4cc(F)ccc34)CC1)CCCC2", "note": "[risperidone, reference compound]", "values": [{"measurement": "clinical response to neuroleptic alone", "setting": "schizophrenia [2]", "value": "no substantial benefit"}]}, {"smiles": "CCCCC/C=C\\C/C=C\\C/C=C\\C/C=C\\CCCC(=O)O", "note": "[AA, arachidonic acid, reference compound]", "values": [{"measurement": "FACL-4 activity for AA relative to DHA", "setting": "[3]; relative to DHA", "value": "more than twice as great as for DHA"}]}, {"smiles": "O=C(CCCN1CCC(O)(c2ccc(Cl)cc2)CC1)c1ccc(F)cc1", "note": "[haloperidol, reference compound]", "values": [{"measurement": "effect on hallucinations, drug alone", "setting": "schizophrenia [4]", "value": "stopped most of the hallucinations"}]}, {"smiles": "CC/C=C\\C/C=C\\C/C=C\\C/C=C\\C/C=C\\CCCC(=O)O", "note": "[EPA, all cis (or all z) 5,8, 11, 14, 17-eicosapentaenoic acid]", "values": [{"measurement": "inhibition of phospholipase A2", "setting": "phospholipase A2", "value": "known to inhibit phospholipase A2"}, {"measurement": "MADRS, percentage improvement from baseline", "setting": "[5]; 1 g ethyl-EPA per day", "value": 35.7, "unit": "%"}, {"measurement": "Total PANSS, percentage improvement from baseline", "setting": "[5]; 1 g ethyl-EPA per day", "value": 18.8, "unit": "%"}, {"measurement": "negative PANSS, percentage improvement from baseline", "setting": "[5]; 1 g ethyl-EPA per day", "value": 22.7, "unit": "%"}, {"measurement": "positive PANSS, percentage improvement from baseline", "setting": "[5]; 1 g ethyl-EPA per day", "value": 20.0, "unit": "%"}, {"measurement": "MADRS, percentage improvement from baseline", "setting": "[5]; 2 g ethyl-EPA per day", "value": 35.7, "unit": "%"}, {"measurement": "Total PANSS, percentage improvement from baseline", "setting": "[5]; 2 g ethyl-EPA per day", "value": 17.1, "unit": "%"}, {"measurement": "negative PANSS, percentage improvement from baseline", "setting": "[5]; 2 g ethyl-EPA per day", "value": 22.7, "unit": "%"}, {"measurement": "positive PANSS, percentage improvement from baseline", "setting": "[5]; 2 g ethyl-EPA per day", "value": 25.0, "unit": "%"}, {"measurement": "tardive dyskinesia", "setting": "tardive dyskinesia", "value": "substantial relief from tardive dyskinesia"}, {"measurement": "affinity for FACL-4", "setting": "[3]", "value": "unusually high affinity"}, {"measurement": "FACL-4 activity for EPA, greater than for AA", "setting": "[3]; relative to AA", "value": 50, "unit": "%"}]}, {"smiles": "OCCOCCN1CCN(C2=Nc3ccccc3Sc3ccccc32)CC1", "note": "[quetiapine, reference compound]", "values": [{"measurement": "clinical response to neuroleptic alone", "setting": "schizophrenia [2]", "value": "no substantial benefit"}]}, {"smiles": "COC(=O)C(c1ccccc1)C1CCCCN1", "note": "(stereo not drawn) [methylphenidate, reference compound]", "values": [{"measurement": "control of ADHD", "setting": "[6]", "value": "only partially controlled"}]}]}
